Data on 29 molecules can be found in patent US20250049776A1, “AUTOPHAGY INDUCING COMPOUNDS AND USES THEREOF, IN PARTICULAR FOR A SYSTEMIC TREATMENT OF DISEASES AND CONDITIONS” (Samsara Therapeutics Inc., priority 2021, published 2025).

The assay deals with Human osteosarcoma U20S cells. As to the kind of experiment: Assay to measure lysosome and autolysosome formation (acidic vesicle formation, LysoView/LysoTracker staining). Type of assay: cell-based. The conditions noted are these: for activation at 0.8 µM: Homo sapiens; for activation at 0.8 µM / Activity (percentage increase in acidic vesicle formation), Table 2b More preferred compounds: U2OS cells, concentration of 0.8 μM; for increase in acidic vesicle formation: relative to DMSO-treated control (10 μM). As for the experimental part: Lysosomes play a fundamental role in the autophagic pathway by fusing with autophagosomes and creating ‘autolysosomes’ in order to digest their contents. Stimulation of lysosome and autolysosome formation by a compound is indicative of a stimulation of autophagy. The ability of compounds to stimulate lysosome and autolysosome formation, and thus autophagy, in live cells was assessed via fluorescent microscopy using various fluorescent stains for labelling and tracking acidic organelles (including lysosomes and autolysosomes) such as: LysoView™ 650 (70059 and 70059-T, Biotium), LysoViewTM633 (70058 and 70058-T, Biotium) and LysoTracker™ Deep Red (L12492, ThermoFisher Scientific). The cellular phenotype was quantitatively assessed for the induction of acidic vesicle formation and compared to a non-treated control, thus providing a measure of the ability of the compound under investigation to stimulate autophagy.
Representative procedure using LysoView™633 dye or LysoTracker™ Deep Red dye: Human osteosarcoma U20S cells (40,000 cells/well) were seeded in a 24 well glass bottom plate (Sensoplate, Greiner Bio-One) and were incubated overnight in a humidified atmosphere at 37° C. and 5% CO2. Cells were grown in DMEM (Gibco) supplemented with 10% Fetal Bovine Serum (FBS) and 100 units/ml penicillin and 100 μg/ml streptomycin (Invitrogen). After the attachment period, cells were treated with different compounds of interest (at various concentrations in DMSO) or DMSO (non-treated control) in cell culture medium and were incubated for 24 hours. Compound-containing medium was removed and cells were incubated with pre-warmed cell culture medium containing 1× LysoView™ 633 (70058 and 70058-T, Biotium) or 50 nM LysoTracker™ Deep Red (L12492, ThermoFisher Scientific) for 45 minutes at 37° C. Finally, cell nuclei were stained for 10 minutes using Hoechst 33342 (1 μg/mL) and then the medium was replaced with fresh medium. The 24 well plate was then fitted into a heated stage on the microscope and cells maintained at 37° C. Images were captured using appropriate filter set for Cy5 and DAPI detection with the EVOS M7000 Microscope (ThermoFisher Scientific). The cellular phenotype was visually assessed for the induction of acidic vesicle formation relative to the non-treated control; multiple images were acquired and analyzed using ImageJ or Cell Profiler.

Where [1] appears, read: read-out: Activity (percentage increase in acidic vesicle formation over the DMSO-treated control), Table 2.
The mark [2] stands for this setting: read-out: Activity (percentage increase in acidic vesicle formation), Table 2a Preferred compounds.

Counter-ions that a name gives are not always drawn. Like-named read-outs stand apart in the source and are kept apart here. Some results are limits rather than exact numbers.

Turning to `NCCOCCNC(=O)c1ccc(-c2cnn(-c3ccccc3)c2)o1` [Compound 101, N-[2-(2-aminoethoxy)ethyl]-5-(1-phenyl-1H-pyrazol-4-yl)furan-2-carboxamide], the activation at 0.8 µM under setting [1] lay within 30 to 50%. With `O=C(c1csc(-c2cnn(-c3ccccc3)c2)n1)N1CCNCC1` [Compound 104, 1-[2-(1-phenyl-1H-pyrazol-4-yl)-1,3-thiazole-4-carbonyl]piperazine], under setting [1], the activation at 0.8 µM was 10 to 30%. Take `O=C(NC[C@@H]1CNCCO1)c1csc(-c2cnn(-c3ccccc3)c2)n1` [Compound 107, N-{[(2S)-morpholin-2-yl]methyl}-2-(1-phenyl-1H-pyrazol-4-yl)-1,3-thiazole-4-carboxamide]: the activation at 0.8 µM under setting [1] is 10 to 30%. On to `NCCOCCNC(=O)c1cc(-c2cnn(-c3ccccc3)c2)cs1` [Compound 110, N-[2-(2-aminoethoxy)ethyl]-4-(1-phenyl-1H-pyrazol-4-yl)thiophene-2-carboxamide], for which the activation at 0.8 µM runs as follows: under setting [1], 50 to 100%; under setting [2], 50 to 100%.

In the case of `O=C(NCC1CCNCC1)c1cc(-c2cnn(-c3ccccc3)c2)cs1` [Compound 111, 4-(1-phenyl-1H-pyrazol-4-yl)-N-[(piperidin-4-yl)methyl]thiophene-2-carboxamide], the activation at 0.8 µM under setting [1] lay in the range of 30 to 50%. As for `CCCN(C(=O)c1csc(-c2cnc(-c3ccccc3)o2)n1)C1CCNC1` (stereo not shown) [Compound 116, 2-(2-phenyl-1,3-oxazol-5-yl)-N-propyl-], the activation at 0.8 µM runs as follows: under setting [1], 50 to 100%; under setting [2], 50 to 100%.

For `CCCN(C(=O)c1ccc(-c2cnn(-c3ccccc3)c2)[nH]1)C1CCNC1` (stereo not shown) [Compound 120, 5-(1-phenyl-1H-pyrazol-4-yl)-N-propyl-N-(pyrrolidin-3-yl)-1H-pyrrole-2-carboxamide], the activation at 0.8 µM was in the range of 50 to 100% under setting [1] and 50 to 100% under setting [2]. Regarding `CCCN(C(=O)c1csc(-c2ccc(-c3ccccc3)s2)n1)C1CCNC1` (stereo not shown) [Compound 122, 2-(5-phenylthiophen-2-yl)-N-propyl-N-(pyrrolidin-3-yl)-1,3-thiazole-4-carboxamide], the “Activity (percentage increase in acidic vesicle formation), Table 2b More preferred compounds” value is on record as “++++ (a percentage increase in acidic vesicle of greater than 100% over the DMSO-treated control)”. The activation at 0.8 µM under setting [1] is greater than 100%. For the same molecule, the activation at 0.8 µM under setting [2] fell in the range of 50 to 100%.

Consider `CCCN(C(=O)c1cc(-c2cnn(-c3ccccc3)c2)c[nH]1)C1CCNC1` (stereo not shown) [Compound 123, 4-(1-phenyl-1H-pyrazol-4-yl)-N-propyl-N-(pyrrolidin-3-yl)-1H-pyrrole-2-carboxamide], for which the “Activity (percentage increase in acidic vesicle formation), Table 2b More preferred compounds” value is given as “++++ (a percentage increase in acidic vesicle of greater than 100% over the DMSO-treated control)”. The activation at 0.8 µM under setting [1] was greater than 100%. Besides, under setting [2], the activation at 0.8 µM lay in the range of 50 to 100%. For the molecule `NC1CN(C(=O)c2csc(-c3cnn(-c4ccccc4)c3)n2)C1` [Compound 124, 1-[2-(1-phenyl-1H-pyrazol-4-yl)-1,3-thiazole-4-carbonyl]azetidin-3-amine], the activation at 0.8 µM under setting [1] was 50 to 100% and the activation at 0.8 µM under setting [2] was in the range of 50 to 100%. As for `CCCN(C(=O)c1csc(-c2cnn(-c3ccccc3)c2)c1)C1CCNC1` (stereo not shown) [Compound 130, 5-(1-phenyl-1H-pyrazol-4-yl)-N-propyl-N-(pyrrolidin-3-yl)thiophene-3-carboxamide], the activation at 0.8 µM under setting [1] is 10 to 30%. Take `CCCN(C(=O)c1ccc(-c2cnn(-c3ccccc3)c2)o1)C1CCNC1` (stereo not shown) [Compound 140, 5-(1-phenyl-1H-pyrazol-4-yl)-N-propyl-N-(pyrrolidin-3-yl)furan-2-carboxamide]: under setting [1], the activation at 0.8 µM lay within 10 to 30%. In the case of `CCCN(C(=O)c1cc(-c2cnn(-c3ccccc3)c2)cs1)C1CCNC1` (stereo not shown) [Compound 141, 4-(1-phenyl-1H-pyrazol-4-yl)-N-propyl-N-(pyrrolidin-3-yl)thiophene-2-carboxamide], the activation at 0.8 µM lay within 50 to 100% under setting [1] and 50 to 100% under setting [2]. As to `N[C@H]1CCCN(C(=O)c2csc(-c3cnn(-c4ccccc4)c3)n2)C1` [Compound 142, (3S)-1-[2-(1-phenyl-1H-pyrazol-4-yl)-1,3-thiazole-4-carbonyl]piperidin-3-amine], the activation at 0.8 µM under setting [1] lay within 10 to 30%. Same read-out and setting: with `N[C@@H]1CCCN(C(=O)c2csc(-c3cnn(-c4ccccc4)c3)n2)C1` [Compound 143, (3R)-1-[2-(1-phenyl-1H-pyrazol-4-yl)-1,3-thiazole-4-carbonyl]piperidin-3-amine] the figure was 10 to 30%. For the molecule `CC1CCCN(C(=O)c2csc(-c3cnn(-c4ccccc4)c3)n2)C1CN` (stereo not shown) [Compound 153, 1-{3-methyl-1-[2-(1-phenyl-1H-pyrazol-4-yl)-1,3-thiazole-4-carbonyl]piperidin-2-yl}methanamine], the activation at 0.8 µM under setting [1] fell in the range of 10 to 30%. As to `NCCCNC(=O)c1csc(-c2cnn(-c3ccccc3)c2)n1` [Compound 159, N-(3-aminopropyl)-2-(1-phenyl-1H-pyrazol-4-yl)-1,3-thiazole-4-carboxamide], the activation at 0.8 µM under setting [1] is 30 to 50%.

For the molecule `NCCNC(=O)c1csc(-c2cnn(-c3ccccc3)c2)n1` [Compound 162, N-(2-aminoethyl)-2-(1-phenyl-1H-pyrazol-4-yl)-1,3-thiazole-4-carboxamide], the activation at 0.8 µM under setting [1] was in the range of 10 to 30%. On the same count and under the same terms, next, `NC1CCCN(C(=O)c2csc(-c3cnn(-c4ccccc4)c3)n2)C1` (stereo not shown) [Compound 167, 1-[2-(1-phenyl-1H-pyrazol-4-yl)-1,3-thiazole-4-carbonyl]piperidin-3-amine]: 10 to 30%; `CCCN(C(=O)c1csc(-c2cnn(-c3ccccc3)c2)n1)[C@H]1CCNC1` [Compound 170, (S)-2-(1-phenyl-1H-pyrazol-4-yl)-N-propyl-N-(pyrrolidin-3-yl)thiazole-4-carboxamide hydrochloride]: 10 to 30%; `O=C(NCC1CCNCC1)c1csc(-c2cnn(-c3ccccc3)c2)n1` [Compound 177, 2-(1-phenyl-1H-pyrazol-4-yl)-N-[(piperidin-4-yl)methyl]-1,3-thiazole-4-carboxamide]: 10 to 30%. Take `O=C(NCC1CCNC1)c1csc(-c2cnn(-c3ccccc3)c2)n1` (stereo not shown) [Compound 179, 2-(1-phenyl-1H-pyrazol-4-yl)-N-[(pyrrolidin-3-yl)methyl]-1,3-thiazole-4-carboxamide]: under setting [1], the activation at 0.8 µM fell in the range of 30 to 50%. Consider `O=C(NC1CNC1)c1csc(-c2cnn(-c3ccccc3)c2)n1` [Compound 180, N-(azetidin-3-yl)-2-(1-phenyl-1H-pyrazol-4-yl)-1,3-thiazole-4-carboxamide], for which the activation at 0.8 µM under setting [1] is 30 to 50%.

For `CC(C)N(C(=O)c1csc(-c2cnn(-c3ccccn3)c2)n1)C1CCNCC1` [Compound 307, N-(piperidin-4-yl)-N-(propan-2-yl)-2-[1-(pyridin-2-yl)-1H-pyrazol-4-yl]-1,3-thiazole-4-carboxamide], the activation at 0.8 µM under setting [1] lay within 50 to 100%. For `CC(C)N(C(=O)c1csc(-c2cnn(-c3ccccc3)c2)n1)[C@@H]1CCNC1` [Compound 312, 2-(1-phenyl-1H-pyrazol-4-yl)-N-(propan-2-yl)-N-[(3R)-pyrrolidin-3-yl]-1,3-thiazole-4-carboxamide], under setting [1], the activation at 0.8 µM fell in the range of 50 to 100%. On the same count and under the same terms, next, `CC(C)N(C(=O)c1csc(-c2cnn(-c3ccccc3)c2)n1)C1C[C@H]2C[C@@H]1CN2` (stereo partly drawn) [Compound 316, N-[(1R,4R)-2-azabicyclo[2.2.1]heptan-5-yl]-2-(1-phenyl-1H-pyrazol-4-yl)-N-(propan-2-yl)-1,3-thiazole-4-carboxamide]: 30 to 50%. Take `CC(C)N(C(=O)c1csc(-c2cnn(-c3ccccc3)c2)n1)C1C2CNCC1C2` (stereo not shown) [Compound 317, N-{3-azabicyclo[3.1.1]heptan-6-yl}-2-(1-phenyl-1H-pyrazol-4-yl)-N-(propan-2-yl)-1,3-thiazole-4-carboxamide]: the “acidic vesicle formation relative to a DMSO-treated control” value (U20S cells, concentration of 10 μM, 24 hours) is listed as “only a slight increase”. The “increase in acidic vesicle formation” value (U20S cells) is recorded as “only a slight increase”. Consider `CC(C)N(C(=O)c1csc(-c2cnn(-c3ccccc3)c2)n1)[C@H]1[C@@H]2CNC[C@@H]21` [Compound 318, N-[(1R,5S,6S)-3-azabicyclo[3.1.0]hexan-6-yl]-2-(1-phenyl-1H-pyrazol-4-yl)-N-(propan-2-yl)-1,3-thiazole-4-carboxamide], for which the activation at 0.8 µM under setting [1] was greater than 100%. Consider `CC(C)N(C(=O)c1csc(-c2cnn(-c3cccnc3)c2)n1)C1CCNCC1` [Compound 321, N-(piperidin-4-yl)-N-(propan-2-yl)-2-[1-(pyridin-3-yl)-1H-pyrazol-4-yl]-1,3-thiazole-4-carboxamide], for which, under setting [1], the activation at 0.8 µM fell in the range of 30 to 50%. Under “U20S cells”, the “increase in acidic vesicle formation” value was “only a slight increase”.
